Article PMC7083565, “In vitro metabolism, reaction phenotyping, enzyme kinetics, CYP inhibition and induction potential of ataluren” (Pharmacology Research & Perspectives, 2020)

Columns and labels:
Type in all cases: in vitro ADME
[1] = Incubation with 16 individual human liver microsomes (correlation analysis); details: 60 minutes, n = 2
Method: Ataluren at a concentration of 10 μmol/L, was incubated (n = 2) with 16 individual HLM at 0.5 mg protein concentration/mL for 0 and 60 minutes at 37°C. Enzyme activities for UGTs 1A1, 1A4, 1A6, 1A9, and 2B7 were precharacterized under optimized conditions by the vendor. Incubation mixtures and procedures were essentially the same as the above. The supernatant fractions were analyzed by LC‐MS/MS to quantify the formation of ataluren‐O‐1β‐acyl glucuronide and the loss of ataluren, and the enzyme activities were correlated with precharacterized UGT enzyme activities. Detailed LC‐MS/MS conditions are summarized in LC‐MS/MS Analysis section. […] The ataluren acyl glucuronide formation rate after 60 minutes incubation was calculated using the amount of metabolite formed (pmol) divided by the protein amount in the incubation sample ([…]) and the incubation time (60 minutes). […]
Quantification of ataluren loss and ataluren‐O‐1β‐acyl glucuronide formation was carried out with an LC‐MS/MS system, which consisted of two Shimadzu LC‐10ADvp pumps, a SPD10‐AVP UV/Vis detector, a Shimadzu SILHTA autosampler, a Shimadzu DGU‐14A degasser, and a Sciex API 4000 QTRAP mass spectrometer equipped with a Turbo Ionspray ionization source that operated in positive ionization mode. […]

CYP1A2 = biological target: T1, CYP1A2 (Homo sapiens, UniProt P05177); assay: CYP inhibition in pooled human liver microsomes: CYP1A2; details: CYP1A2, HLM, estimated, concentrations up to 400 μmol/L
T1 construct: tissue XenoTech LLC, Celsis-In Vitro Technologies, or Tissue Transformation Technologies; host or cells: pooled human liver microsomes
T1 sequence (P05177 1-516): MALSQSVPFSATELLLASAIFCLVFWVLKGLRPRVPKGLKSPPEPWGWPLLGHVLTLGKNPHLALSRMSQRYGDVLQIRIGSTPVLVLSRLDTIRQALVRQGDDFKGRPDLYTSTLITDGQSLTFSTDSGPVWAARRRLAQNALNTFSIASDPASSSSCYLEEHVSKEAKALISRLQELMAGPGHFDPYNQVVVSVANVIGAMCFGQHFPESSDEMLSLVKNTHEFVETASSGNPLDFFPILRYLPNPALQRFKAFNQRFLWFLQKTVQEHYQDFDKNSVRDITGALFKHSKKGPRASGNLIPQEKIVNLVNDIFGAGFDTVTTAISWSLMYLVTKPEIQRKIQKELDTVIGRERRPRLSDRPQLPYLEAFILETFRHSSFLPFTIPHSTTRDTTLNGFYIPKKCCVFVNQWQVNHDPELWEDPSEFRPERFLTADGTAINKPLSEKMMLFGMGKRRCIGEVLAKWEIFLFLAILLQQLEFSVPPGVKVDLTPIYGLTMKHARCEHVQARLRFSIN
Method: (§1) The final concentration of each probe substrate was near the experimentally determined Km value for the indicated enzyme. Ataluren or prototypical CYP inhibitors (positive controls) was incubated (n = 3) with probe substrates and HLM in 100 mmol/L phosphate buffer (pH 7.4) in a total volume of approximately 0.25 mL, and the reactions were initiated by the addition of 1 mmol/L NADPH at 37°C. The reactions were carried out using previously established conditions to ensure linearity with respect to protein concentration and incubation time (Table S1). Incubations were stopped with the addition of ice‐cold acetonitrile. Metabolite formation in incubations with test compound and control inhibitors was assessed with LC‐MS/MS methods for each of the reaction products as described in Table S2. […] After 7 minutes incubation at 37°C, the reaction was stopped by the addition of ice‐cold acetonitrile, followed by membrane plate filtration. The filtrates were used for LC‐MS/MS analysis. […] IC50 values were determined by nonlinear regression with GraphPad Prism 5 using the following four‐parameter sigmoidal‐logistic IC50 equation: Fit=background+range-background/[1+I/IC50^slope]
(§2) Where, I is the inhibitor concentration, and background was set to 0 and range to 100, as percent of control values are utilized. K i was determined by nonlinear regression with GraphPad Prism 5 using best fit model.

CYP2B6 = biological target: T2, CYP2B6 (Homo sapiens, UniProt P20813); assay: CYP inhibition in pooled human liver microsomes: CYP2B6; details: CYP2B6, HLM, estimated, concentrations up to 400 μmol/L
T2 construct: tissue XenoTech LLC, Celsis-In Vitro Technologies, or Tissue Transformation Technologies; host or cells: pooled human liver microsomes
T2 sequence (P20813 1-491): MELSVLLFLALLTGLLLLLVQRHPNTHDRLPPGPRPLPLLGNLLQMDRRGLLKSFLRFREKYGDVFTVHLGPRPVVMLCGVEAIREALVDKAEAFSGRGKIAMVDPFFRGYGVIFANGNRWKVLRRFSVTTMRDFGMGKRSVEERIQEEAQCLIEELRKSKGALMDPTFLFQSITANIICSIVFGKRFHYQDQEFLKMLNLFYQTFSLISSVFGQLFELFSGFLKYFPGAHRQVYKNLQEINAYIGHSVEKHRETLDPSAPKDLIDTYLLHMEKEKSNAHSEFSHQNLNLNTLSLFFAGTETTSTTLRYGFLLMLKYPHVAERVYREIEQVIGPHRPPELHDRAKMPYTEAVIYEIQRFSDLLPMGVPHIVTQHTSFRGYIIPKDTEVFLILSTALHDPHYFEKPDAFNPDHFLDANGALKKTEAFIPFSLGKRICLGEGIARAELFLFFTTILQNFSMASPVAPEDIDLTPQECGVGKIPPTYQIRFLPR
Method: as §1, §2

Compound: O=C(O)c1cccc(-c2noc(-c3ccccc3F)n2)c1 [ataluren, Ataluren]
- Rate, Loss of ataluren ([1]; individual HLM sample H0273, 10 μmol/L): 111 pmol/mg/min
- Rate, Loss of ataluren ([1]; individual HLM sample H0295, 10 μmol/L): 134 pmol/mg/min
- IC50 (CYP1A2): > 400 µM
- IC50 (CYP2B6): > 400 µM
